From patent publication US20260020570A1, “HERBICIDAL COMBINATIONS AND A METHOD FOR CONTROLLING UNDESIRED VEGETATION” (UPL Mauritius Limited, priority 2022, published 2026) come the findings set out here.

For this test, the system named is Eleusine indica. Kind of test: Post-emergence herbicidal efficacy of L-glufosinate ammonium, additional herbicides and their combinations; expected efficacy by the Colby method. The format is in vivo. How it is done: The following products were used for testing the weed control efficacy of present herbicidal combinations.
Evaluation of Post-Emergence Herbicidal Activity:
Methodology: Trials were carried out to evaluate the efficacy of the combinations comprising L-glufosinate ammonium and the additional herbicides on Eleusine genus weeds.
All treatments were in 4 replications per treatment with a spray volume of about 150 L/ha.
Efficacy Evaluation: The expected efficacy of a combination comprising L-glufosinate ammonium and additional herbicides was calculated using the well-established Colby method.
In the Colby method, the expected (or predicted) response of a combination of herbicides is calculated by taking the product of the observed response for each individual component of the combination when applied alone, divided by 100, and subtracting this value from the sum of the observed response for each component when applied alone. An unexpected enhancement in efficacy of the combination is then determined by comparing the observed response of the combination to the expected (or predicted) response as calculated from the observed response of each individual component alone. […] The Colby method requires only a single dose of each herbicide applied alone and the mixture of both doses. The formula used to calculate the expected efficacy (EE) which was compared with the observed efficacy (OE) to determine the efficacy of the present disclosure is explained hereinbelow:
The expected efficacy for a combination of two active ingredients is as follows:
[formula] • wherein, • A=Observed efficacy of active ingredient A at the same concentration as used in the mixture. • B=Observed efficacy of the active ingredient B at the same concentration as used in the mixture.

In the case of `C[N+](C)(C)CCO.O=C([O-])COc1ccc(Cl)cc1Cl` [2,4-D choline], the “Observed efficacy (%) of 2,4-D choline (228 g a.i./ha)” value is on record as 10% (7 DAA, Table 18); 10% (14 DAA, Table 18); 10% (21 DAA, Table 18); 5% (28 DAA, Table 18).
As to `COc1c(Cl)ccc(Cl)c1C(=O)O` [Dicamba], under “28 DAA, Table 14”, the “Observed efficacy (%) of Dicamba (228 g a.i./ha)” value is given as 5%.
As to `Cc1ccc2c(c1)[C@H](Nc1nc(N)nc(C(C)F)n1)[C@@H](C)C2` (some centres unmarked) [Indaziflam], the “Observed efficacy (%) of Indaziflam (50 g a.i./ha)” value is, setting by setting: (7 DAA, Table 9) 60%; (14 DAA, Table 9) 80%; (21 DAA, Table 9) 85%; (28 DAA, Table 9) 85%.
With `CS(=O)(=O)c1cc(C(F)(F)F)ccc1C(=O)c1cnoc1C1CC1` [Isoxaflutole], the “Observed efficacy (%) of Isoxaflutole (60 g a.i./ha)” value runs as follows: (7 DAA, Table 10) 40%; (14 DAA, Table 10) 75%; (21 DAA, Table 10) 85%.
Take `CP(=O)(O)CC[C@H](N)C(=O)O.N` [L-glufosinate ammonium]: the “Observed efficacy (%) of L-glufosinate ammonium (150 g a.i./ha)” value (“Observed efficacy (%) … (150 g a.i./ha)” below) is, setting by setting: (3 DAA, Table 15) 40%; (7 DAA, Table 8) 35%; (7 DAA, Table 9) 35%; (7 DAA, Table 10) 35%; (7 DAA, Table 11) 35%; (7 DAA, Table 12) 40%. Further, the “Observed efficacy (%) … (150 g a.i./ha)” value reads like this: (7 DAA, Table 13) 35%; (7 DAA, Table 15) 50%; (7 DAA, Table 18) 70%; (14 DAA, Table 8) 25%; (14 DAA, Table 9) 25%; (14 DAA, Table 10) 25%. Further, the “Observed efficacy (%) … (150 g a.i./ha)” value is 30% (14 DAA, Table 11); 30% (14 DAA, Table 12); 30% (14 DAA, Table 13); 40% (14 DAA, Table 15); 65% (14 DAA, Table 18); 20% (21 DAA, Table 8). In addition, the “Observed efficacy (%) … (150 g a.i./ha)” value reads like this: (21 DAA, Table 9) 15%; (21 DAA, Table 10) 20%; (21 DAA, Table 12) 20%; (21 DAA, Table 15) 38%; (21 DAA, Table 16) 35%; (21 DAA, Table 17) 25%. In addition, the “Observed efficacy (%) … (150 g a.i./ha)” value stood at 60% (21 DAA, Table 18); 10% (28 DAA, Table 8); 5% (28 DAA, Table 9); 10% (28 DAA, Table 12); 40% (28 DAA, Table 14); 30% (28 DAA, Table 15). The “Observed efficacy (%) … (150 g a.i./ha)” value by setting is: (28 DAA, Table 17) 20%; (28 DAA, Table 18) 50%; (35 DAA, Table 15) 20%; (35 DAA, Table 17) 18%.
As to `CCc1cccc(C)c1N(COC(C)C)C(=O)CCl` [Propisochlor], the “Observed efficacy (%) of Propisochlor (540 g a.i./ha)” value by setting is: (7 DAA, Table 13) 0%; (14 DAA, Table 13) 0%.
`Cn1nc(C(F)(F)F)c(CS(=O)(=O)C2=NOC(C)(C)C2)c1OC(F)F` [Pyroxasulfone]: the “Observed efficacy (%) of Pyroxasulfone (75 g a.i./ha)” value by setting is: (7 DAA, Table 11) 5%; (14 DAA, Table 11) 30%.
As for `CCc1cccc(C)c1N(C(=O)CCl)[C@@H](C)COC` [S-metolachlor], the “Observed efficacy (%) of S-metolachlor (960 g a.i./ha)” value by setting is: (7 DAA, Table 8) 5%; (14 DAA, Table 8) 40%; (21 DAA, Table 8) 40%; (28 DAA, Table 8) 65%.
With `CCN(CC)C(=O)C(C)Oc1cccc2ccccc12` (centres unmarked) [napropamide, Napropamide], the “Observed efficacy (%) of napropamide (675 g a.i./ha)” value (“Observed efficacy (%) of napropamide” below) (7 DAA, Table 12) is 5%; the “Observed efficacy (%) of napropamide” value (14 DAA, Table 12) came out at 5%; the “Observed efficacy (%) of napropamide” value (21 DAA, Table 12) worked out at 5%; the “Observed efficacy (%) of napropamide” value (28 DAA, Table 12) is reported as 5%.
`CCOC(=O)C(C)Oc1ccc(Oc2cnc3cc(Cl)ccc3n2)cc1` (centres unmarked) [quizalofop-ethyl, Quizalofop-ethyl]: the “Observed efficacy (%) of quizalofop-ethyl (25 g a.i./ha)” value (21 DAA, Table 16) worked out at 95%.
On to `C[C@@H](Oc1ccc(Oc2cnc3cc(Cl)ccc3n2)cc1)C(=O)OCC1CCCO1` (some centres unmarked) [quizalofop-p-tefuryl, Quizalofop-p-tefuryl], for which the “Observed efficacy (%) of quizalofop-p-tefuryl (25 g a.i./ha)” value runs as follows: (21 DAA, Table 17) 10%; (28 DAA, Table 17) 5%; (35 DAA, Table 17) 5%.
Turning to `CS(=O)(=O)c1ccc(C(=O)C2C(=O)CCCC2=O)c(Cl)c1COCC(F)(F)F` [tembotrione, Tembotrione], the “Observed efficacy (%) of tembotrione (53 g a.i./ha)” value reads like this: (3 DAA, Table 15) 5%; (7 DAA, Table 15) 15%; (14 DAA, Table 15) 40%; (21 DAA, Table 15) 38%; (28 DAA, Table 15) 35%; (35 DAA, Table 15) 30%.
